Where two headings read alike, the source gives them in different places.

For experiment [1], the target named is T1, HCV NS5B RdRp genotype 1b (Hepatitis C virus genotype 1b, UniProt Q9WMX2).
T1 construct: The protein was expressed with an 18 amino acid C-terminal truncation to enhance the solubility; made in house; host or cells: E. coli BL21(DE3), pET21a vector
The experiment is described as follows: Modified HCV NS5B RdRp enzyme assay (preincubation protocol). It is filed as biochemical. As to the method:
HCV NS5B RdRp cloning, expression, and purification. The cDNA encoding the NS5B protein of HCV, genotype 1b, was cloned into the pET21a expression vector. The protein was expressed with an 18 amino acid C-terminal truncation to enhance the solubility. The E. coli competent cell line BL21(DE3) was used for expression of the protein. Cultures were grown at 37° C. for ˜4 hours until the cultures reached an optical density of 2.0 at 600 nm. The cultures were cooled to 20° C. and induced with 1 mM IPTG. Fresh ampicillin was added to a final concentration of 50 μg/ml and the cells were grown overnight at 20° C.
Cell pellets (3L) were lysed for purification to yield 15-24 mgs of purified NS5B. The lysis buffer consisted of 20 mM Tris-HCl, pH 7.4, 500 mM NaCl, 0.5% triton X-100, 1 mM DTT, 1 mM EDTA, 20% glycerol, 0.5 mg/ml lysozyme, 10 mM MgCl2, 15 ug/ml deoxyribonuclease I, and Complete TM protease inhibitor tablets (Roche). After addition of the lysis buffer, frozen cell pellets were resuspended using a tissue homogenizer. To reduce the viscosity of the sample, aliquots of the lysate were sonicated on ice using a microtip attached to a Branson sonicator. The sonicated lysate was centrifuged at 100,000×g for 1 hr at 4° C. and filtered through a 0.2 μm filter unit (Corning).
The protein was purified using three sequential chromatography steps: Heparin sepharose CL-6B, polyU sepharose 4B, and Hitrap SP sepharose (Pharmacia). The chromatography buffers were identical to the lysis buffer but contained no lysozyme, deoxyribonuclease I, MgCl2 or protease inhibitor and the NaCl concentration of the buffer was adjusted according to the requirements for charging the protein onto the column. Each column was eluted with a NaCl gradient which varied in length from 5-50 column volumes depending on the column type. After the final chromatography step, the resulting purity of the enzyme is >90% based on SDS-PAGE analysis. The enzyme was aliquoted and stored at −80° C.
Standard HCV NS5B RdRp enzyme assay. HCV RdRp genotype 1b assays were run in a final volume of 60 μl in 96 well plates (Costar 3912). The assay buffer is composed of 20 mM Hepes, pH 7.5, 2.5 mM KCl, 2.5 mM MgCl2, 1 mM DTT, 1.6 U RNAse inhibitor (Promega N2515), 0.1 mg/ml BSA (Promega R3961), and 2% glycerol. All compounds were serially diluted (3-fold) in DMSO and diluted further in water such that the final concentration of DMSO in the assay was 2%. HCV RdRp genotype 1b enzyme was used at a final concentration of 28 nM. A polyA template was used at 6 nM, and a biotinylated oligo-dT12 primer was used at 180 nM final concentration. Template was obtained commercially (Amersham 27-4110). Biotinylated primer was prepared by Sigma Genosys. 3H-UTP was used at 0.6 μCi (0.29 μM total UTP). Reactions were initiated by the addition of enzyme, incubated at 30° C. for 60 min, and stopped by adding 25 μl of 50 mM EDTA containing SPA beads (4 μg/μl, Amersham RPNQ 0007). Plates were read on a Packard Top Count NXT after >1 hr incubation at room temperature.
Modified HCV NS5B RdRp enzyme assay. A modified enzyme assay was performed essentially as described for the standard enzyme assay except for the following: The biotinylated oligo dT12 primer was precaptured on streptavidin-coated SPA beads by mixing primer and beads in assay buffer and incubating at room temperature for one hour. Unbound primer was removed after centrifugation. The primer-bound beads were resuspended in 20 mM Hepes buffer, pH 7.5 and used in the assay at final concentrations of 20 nM primer and 0.67 μg/μl beads. Order of addition in the assay: enzyme (14 nM) was added to diluted compound followed by the addition of a mixture of template (0.2 nM), 3H-UTP (0.6 μCi, 0.29 μM), and primer-bound beads, to initiate the reaction; concentrations given are final. Reactions were allowed to proceed for 4 hours at 30° C.
IC50 values for compounds were determined using seven different [I]. […]

The next experiment concerns HCV replicon cells. Put plainly: HCV replicon FRET assay. Particulars: Hepatitis C virus. It is filed as cell-based. An excerpt:
FRET Assay Preparation. To perform the HCV FRET screening assay, 96-well cell culture plates were used. The FRET peptide (Anaspec, Inc.) (Taliani et al., Anal. Biochem. 1996, 240, 60-67) contains a fluorescence donor, EDANS, near one end of the peptide and an acceptor, DABCYL, near the other end. The fluorescence of the peptide is quenched by […] resonance energy transfer (RET) between the donor and the acceptor, but as the NS3 protease cleaves the peptide the products are released from RET quenching and the fluorescence of the donor becomes apparent. The assay reagent was made as follows: 5× cell Luciferase cell culture lysis reagent from Promega (#E153A) diluted to 1× with dH2O, NaCl added to 150 mM final, the FRET peptide diluted to 20 μM final from a 2 mM stock.
To prepare plates, HCV replicon cells, with or without a Renilla luciferase reporter gene, were trypsinized and placed into each well of a 96-well plate with titrated test compounds added in columns 3 through 12; columns 1 and 2 contained a control compound (HCV protease inhibitor), and the bottom row contained cells without compound. The plates were then placed in a CO2 incubator at 37° C.
Assays. Subsequent to addition of the test compounds described above (FRET Assay Preparation), at various times the plate was removed and Alamar blue solution (Trek Diagnostics, #00-100) was added per well as a measure of cellular toxicity. After reading in a Cytoflour 4000 instrument (PE Biosystems), plates were rinsed with PBS and then used for FRET assay by the addition of 30 ul of the FRET peptide assay reagent described above (FRET Assay Preparation) per well. The plate was then placed into the Cytoflour 4000 instrument which had been set to 340 excite/490 emission, automatic mode for 20 cycles and the plate read in a kinetic mode. Typically, the signal to noise using an endpoint analysis after the reads was at least three-fold. Alternatively, after Alamar blue reading, plates were rinsed with PBS, 50 ul of DMEM (high glucose) without phenol red was added and plates were then used for luciferase assay using the Promega Dual-Glo Luciferase Assay System.
Compound analysis was determined by quantification of the relative HCV replicon inhibition and the relative cytotoxicity values. To calculate cytoxicity values, the average Alamar Blue fluorescence signals from the control wells were set as 100% non-toxic. The individual signals in each of the compound test wells were then divided by the average control signal and multiplied by 100% to determine […]. To calculate the HCV replicon inhibition values, an average background value was obtained from the two wells containing the highest amount of HCV protease inhibitor at the end of the assay period. These numbers were similar to those obtained from naive Huh-7 cells.
The background numbers were then subtracted from the average signal obtained from the control wells and this number was used as 100% activity. The individual signals in each of the compound test wells were then divided by the averaged control values after background subtraction and multiplied by 100% to determine percent activity. EC50 values for a protease inhibitor titration were calculated as the concentration which caused a 50% reduction in FRET or luciferase activity. The two numbers generated for the compound plate, percent cytoxicity and percent activity were used to determine compounds of interest for further analysis.
In general terms: A replicon is a self-replicating genome or part of one, used to study replication in cells.

The mark [2] stands for this setting: HCV NS5B RdRp genotype 1b, preincubation protocol, read-out: IC50.
The mark [3] stands for this setting: HCV replicon cells, FRET assay, read-out: EC50.

T1 sequence (Q9WMX2 2420-2992): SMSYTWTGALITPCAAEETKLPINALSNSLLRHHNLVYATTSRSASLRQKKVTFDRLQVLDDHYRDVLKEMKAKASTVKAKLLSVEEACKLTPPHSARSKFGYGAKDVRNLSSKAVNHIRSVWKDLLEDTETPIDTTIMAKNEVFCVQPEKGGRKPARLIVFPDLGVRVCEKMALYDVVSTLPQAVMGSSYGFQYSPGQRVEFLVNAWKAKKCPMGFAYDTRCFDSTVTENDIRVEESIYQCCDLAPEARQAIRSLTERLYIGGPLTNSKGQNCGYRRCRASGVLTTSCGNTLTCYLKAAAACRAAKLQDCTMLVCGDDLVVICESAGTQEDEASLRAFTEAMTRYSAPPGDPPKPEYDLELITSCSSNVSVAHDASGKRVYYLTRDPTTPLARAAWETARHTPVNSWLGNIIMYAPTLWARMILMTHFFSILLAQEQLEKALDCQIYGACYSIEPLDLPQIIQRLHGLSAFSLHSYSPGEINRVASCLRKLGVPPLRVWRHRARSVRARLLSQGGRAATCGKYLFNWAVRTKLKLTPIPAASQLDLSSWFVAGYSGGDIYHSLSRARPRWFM

Consider `COc1ccc2c(c1)C=C(C(=O)N1C[C@@H](C)O[C@@H](C)C1)Cn1c-2c(C2CCCCC2)c2ccc(C(=O)NS(=O)(=O)N(C)C)nc21`, for which, in experiment [1] (setting [2]), the IC50 fell in the range of 0.001 to 0.5 µM. The EC50 in the experiment with HCV replicon cells (setting [3]) was greater than 0.5 µM.

On to `COc1ccc2c(c1)C=C(C(=O)N1C[C@@H](C)N(C)[C@@H](C)C1)Cn1c-2c(C2CCCCC2)c2ccc(C(=O)NS(=O)(=O)N(C)C)nc21`, for which the IC50 in experiment [1] (setting [2]) lay within 0.001 to 0.5 µM. In addition, the EC50 in the experiment on HCV replicon cells (setting [3]) fell in the range of 0.001 to 0.5 µM.

In the case of `COc1ccc2c(c1)[C@@H]1C[C@]1(C(=O)N1[C@@H]3CC[C@H]1CN(C)C3)Cn1c-2c(C2CCCCC2)c2ccc(C(=O)NS(=O)(=O)N(C)C)nc21`, in experiment [1], the IC50 fell in the range of 0.001 to 0.5 µM. Besides, in the experiment on HCV replicon cells, the EC50 is greater than 0.1 µM.

For `COc1ccc2c(c1)C=C(C(=O)N1C[C@@H](C)O[C@@H](C)C1)Cn1c-2c(C2CCCCC2)c2cccnc21`, the IC50 in experiment [1] (setting [2]) is 0.5 to 10 µM. Also, in the experiment on HCV replicon cells (setting [3]), the EC50 was greater than 0.37 µM.

Consider `COC(=O)C1=Cc2cc(OC)ccc2-c2c(C3CCCCC3)c3ccc(C(=O)NS(=O)(=O)N(C)C)nc3n2C1`, for which the IC50 in experiment [1] (setting [2]) lay within 0.001 to 0.5 µM. In addition, in the experiment with HCV replicon cells (setting [3]), the half-maximal effective concentration (EC50) was 0.5 to 10 µM.

Turning to `CNS(=O)(=O)NC(=O)c1ccc2c(C3CCCCC3)c3n(c2n1)CC(C(=O)N1C[C@@H](C)O[C@@H](C)C1)=Cc1cc(OC)ccc1-3`, the IC50 in experiment [1] (setting [2]) was 0.001 to 0.5 µM. Also, the EC50 with HCV replicon cells (setting [3]) was 0.5 to 10 µM.

In experiment [1], `COc1ccc2c(c1)[C@@H]1C[C@]1(C(=O)N1[C@@H]3CC[C@H]1CN(C)C3)Cn1c-2c(C2CCCCC2)c2ccc(C(=O)N(C)S(=O)(=O)N(C)C)nc21` came in with an IC50 of 0.5 to 10 µM. The concentration giving a half-maximal response (EC50) in the experiment with HCV replicon cells was greater than 0.1 µM.

In general, IC50 refers to the concentration that gives 50% inhibition. A word on the EC50: it is the midpoint of the concentration-response curve.

These data come from patent US7517872B2, “Compounds for the treatment of hepatitis C” (Bristol-Myers Squibb Company, priority 2007, dated 2009).
